Measurements published in US5162336A, “Tetrahydro-pyrido-indoles as cholecystokinin and gastrin antagonists” (Rhone-Poulenc Rorer Pharmaceuticals Inc., priority 1990, dated 1992).

Target: T1, CCK-A receptor (Rattus norvegicus, UniProt P30551)
T1 construct: from tissue; host or cells: pancreas membranes of Sprague-Dawley rat
T1 sequence (P30551 1-444): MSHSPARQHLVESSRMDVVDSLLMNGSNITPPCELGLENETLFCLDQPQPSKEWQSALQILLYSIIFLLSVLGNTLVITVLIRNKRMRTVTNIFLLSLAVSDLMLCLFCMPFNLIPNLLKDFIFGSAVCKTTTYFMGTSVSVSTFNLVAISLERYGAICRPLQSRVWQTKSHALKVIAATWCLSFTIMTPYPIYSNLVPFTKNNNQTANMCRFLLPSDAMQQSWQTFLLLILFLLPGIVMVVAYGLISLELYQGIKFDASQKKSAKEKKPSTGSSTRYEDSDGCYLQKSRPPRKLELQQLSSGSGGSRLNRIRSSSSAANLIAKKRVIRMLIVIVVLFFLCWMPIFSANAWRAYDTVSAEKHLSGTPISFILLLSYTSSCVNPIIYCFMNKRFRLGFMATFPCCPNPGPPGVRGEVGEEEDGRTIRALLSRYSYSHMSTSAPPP
Assay: CCK-A receptor binding assay (displacement of 3H-L-364,718 from rat pancreas membranes)
Parameters: species or system Sprague-Dawley rat
Conditions: 3H-L-364,718 0.2 nM, 37° C., 30 min, read-out: In vitro Binding Data IC50 CCK
Outline: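 Rat pancreas membranes incubated 30 min at 37 °C with 0.2 nM 3H-L-364,718 in 50 mM Tris pH 7.7, 5 mM MgCl2, 5 mM DTT, 0.14 mg/ml bacitracin, 2 mg/ml BSA. Nonspecific binding defined by 300 nM unlabeled L-364,718; rapid filtration and scintillation counting, triplicates.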

An IC50 of 100 µM was found for CC(C)C[C@H](NC(=O)[C@H]1Cc2c([nH]c3ccccc23)CN1C(=O)Nc1cccc2ccccc12)C(=O)N[C@@H](CC(=O)O)C(N)=O [Example 67, N-[(3R)-2-(1-naphthylcarbamoyl)-1,2,3,4-tetrahydro-9H-pyrido[3,4-b]indole-3-carboxyl]-L-leucyl-L-aspartic acid amide] in this work.
